According to patent US12624019B2, “Indazole derivative, and preparation method therefor and use thereof” (Leadingtac Pharmaceutical (Shaoxing) Co., Ltd., priority 2020, dated 2026):

Experiments:
IRAK4 kinase = molecular target: T1, IRAK4 kinase (Homo sapiens, UniProt Q9NWZ3); assay: IRAK4 kinase activity test (KinEASE-STK HTRF kit); type: biochemical; conditions: IRAK4 kinase inhibition, 7 μM ATP, 37° C. 120 min
T1 sequence (Q9NWZ3 1-460): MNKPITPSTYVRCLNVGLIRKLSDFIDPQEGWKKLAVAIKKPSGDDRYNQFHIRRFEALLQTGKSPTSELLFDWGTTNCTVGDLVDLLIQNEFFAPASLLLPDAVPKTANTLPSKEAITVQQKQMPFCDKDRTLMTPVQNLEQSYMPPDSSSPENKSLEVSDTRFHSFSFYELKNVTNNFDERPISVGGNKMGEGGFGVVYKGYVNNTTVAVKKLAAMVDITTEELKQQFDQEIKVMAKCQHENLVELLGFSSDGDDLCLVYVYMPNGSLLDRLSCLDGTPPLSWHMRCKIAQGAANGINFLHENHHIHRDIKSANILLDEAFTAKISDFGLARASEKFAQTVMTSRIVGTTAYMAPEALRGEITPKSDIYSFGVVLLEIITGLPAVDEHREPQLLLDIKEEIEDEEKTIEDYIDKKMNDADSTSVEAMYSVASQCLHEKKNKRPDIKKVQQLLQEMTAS
Protocol: KinEASE-STK Si serine/threonine kinase kit (Cisbio) was used to detect the inhibitory effect of the compound on IRAK4 kinase activity. The specific method was: the compound was dissolved in dimethyl sulfoxide, and then it was diluted with the buffer solution of the kit by equal gradient to make the final concentration range of the tested compound in the reaction system 10000 nM-0.038 nM, then 2.5 nM kinase, 1 μM biotinylated polypeptide substrate and 7 μM adenosine triphosphate (ATP) were added in sequence and incubated at 37° C. for 120 min. Subsequently, anti-phosphorylated serine/threonine antibody coupled with europium element compound and modified XL665 streptavidin were added to the reaction system to terminate the reaction. After incubating at room temperature for 1 h, the fluorescence intensity of each well at the emission wavelength of 620 nm and 665 nm and the excitation wavelength of 337 nm was determined in HTRF mode on the microplate reader EnVision (PerkinElmer), the ratio value was calculated using the formula Ratio=(665 nm/620 nm)×10^4. By comparing with the fluorescence intensity ratio of the control group, the inhibition rate of the compound at each concentration was calculated, and then the IC50 value of the compound was obtained by fitting the nonlinear curve with the logarithmic concentration-inhibition rate by GraphPad Prism 7.

[1] = molecular target: T2, IRAK4 kinase protein in THP-1 cells (Homo sapiens, UniProt Q9NWZ3); assay: Degradation of IRAK4 in THP-1 cells by Western Blot; type: cell-based; conditions: 24 hours; for DC50 / Dmax: IRAK4 degradation in THP-1 cells; for DC50: read-out: WB DC50; for Dmax: read-out: WB Dmax; for WB D(%) (300 nM) / WB D(%) (1000 nM): degradation percentage of IRAK4 in THP-1 cells; for WB D(%) (300 nM): compound 300 nM; for WB D(%) (1000 nM): compound 1000 nM
T2 construct: endogenous in cells; host or cells: THP-1 cells
T2 sequence (Q9NWZ3 1-460): T1 sequence (Q9NWZ3 1-460)
Protocol: Each well of the 24-well cell culture plate was inoculated with 0.95 mL THP-1 cells (stem cell bank of Chinese academy of sciences) with a cell density of 5×10^5 cells/well. The cell plate was placed in a 5% carbon dioxide incubator and cultured overnight at 37° C., then 50 μL compound in dimethyl sulfoxide was added. The final concentration of the compound was in the range of 1-3000 nM. After continuous cultivation for 24 hours, the cells were collected into a 1.5 mL centrifuge tube, centrifuged at 1000 rpm and 4° C. for 5 minutes. Cell precipitation was washed twice with 1×DPBS, resuspended cells were lysed with 200 μL lysate (cell lysate was Western and IP cell lysate (Beyotime), supplemented with 1 mM mixture of phenylmethylsulfonyl fluoride and protease inhibitor (Beyotime)), left on ice for 30 minutes, then centrifuged at 14000 g at 4° C. for 10 minutes, and the supernatant was taken to detect IRAK4 protein level by Western blot.
The total protein concentration in the supernatant of cell lysis was determined by BCA protein quantitative kit (Tiangen). According to the concentration of total protein detected by BCA, the supernatant was adjusted to […] with PBS and 5×SDS-PAGE protein loading buffer (Beyotime), bathed in water at 100° C. for 10 minutes, then placed in ice bath for 5 minutes, centrifuged at 14000 g and 4° C. for 5 minutes, and then collected as WB loading sample. Prefabricated glue (KeyGEN) was used for protein electrophoresis with a loading amount of 10 μL (total protein 2 μg). After Tris-MOPS-SDS electrophoresis solution (Adamas), 120V constant pressure electrophoresis was performed. After electrophoresis, the protein on the adhesive strip was transferred to PVDF membrane with a constant current of […] for 50 minutes. After the membrane was transferred, the membrane was added in 1×QuickBlock blocking buffer (Beyotime) and incubated for 30 minutes at room temperature. After blocking, PVDF membranes were incubated with IRAK4 primary antibody (Abcam) overnight at 4°, the membranes were washed with TBST buffer (2.4 g Tris, 8.8 g NaCl, 1.5 mL Tween 20, pH adjusted to 7.4, constant volume to 1 L) for 30 minutes, incubated with secondary antibody (Abcam) for 2 hours at room temperature, finally incubated with Clarity Western ECL Substrate (BIO-RAD) for 5 minutes for luminescence development, chemiluminescence imaging system (Clinx, chemiScope 6200 Touch) was used for development and protein mapping photography. The protein map was analyzed by Clinx chemiluminescence analysis software for grayscale values. Using the formula: grayscale correction value=(target protein grayscale value/corresponding internal reference grayscale value)×[…], the grayscale correction value of each sample was calculated. The degradation rate was calculated by comparing with the grayscale correction value of the control group. Furthermore, DC50 and Dmax values of the compound were obtained by the nonlinear curve fitting with the logarithmic concentration-inhibition rate by GraphPad Prism 7.

IKZF1 = molecular target: T3, IKZF1 (Homo sapiens, UniProt Q13422+Q96SW2); assay: Degradation of IKZF1 in L363 cells by Western blot; type: cell-based; conditions: compound 1000 nM, 16 hours
T3 construct: endogenous in cells; host or cells: L363 cells
T3 sequence (Q13422 whole entry): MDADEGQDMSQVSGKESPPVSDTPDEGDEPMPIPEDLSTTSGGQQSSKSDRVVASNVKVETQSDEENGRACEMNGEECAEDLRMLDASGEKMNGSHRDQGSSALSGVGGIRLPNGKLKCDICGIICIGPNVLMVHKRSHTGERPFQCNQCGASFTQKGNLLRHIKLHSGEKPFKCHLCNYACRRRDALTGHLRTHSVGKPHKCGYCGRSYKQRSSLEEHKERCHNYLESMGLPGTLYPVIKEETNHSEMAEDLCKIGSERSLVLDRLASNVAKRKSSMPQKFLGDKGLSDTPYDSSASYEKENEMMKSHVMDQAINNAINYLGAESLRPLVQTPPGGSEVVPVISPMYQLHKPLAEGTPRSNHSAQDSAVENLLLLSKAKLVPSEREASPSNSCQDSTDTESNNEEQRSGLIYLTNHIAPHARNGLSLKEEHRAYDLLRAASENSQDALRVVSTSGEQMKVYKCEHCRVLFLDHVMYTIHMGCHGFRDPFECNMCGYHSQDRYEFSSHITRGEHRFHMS
T3 sequence (Q96SW2 whole entry): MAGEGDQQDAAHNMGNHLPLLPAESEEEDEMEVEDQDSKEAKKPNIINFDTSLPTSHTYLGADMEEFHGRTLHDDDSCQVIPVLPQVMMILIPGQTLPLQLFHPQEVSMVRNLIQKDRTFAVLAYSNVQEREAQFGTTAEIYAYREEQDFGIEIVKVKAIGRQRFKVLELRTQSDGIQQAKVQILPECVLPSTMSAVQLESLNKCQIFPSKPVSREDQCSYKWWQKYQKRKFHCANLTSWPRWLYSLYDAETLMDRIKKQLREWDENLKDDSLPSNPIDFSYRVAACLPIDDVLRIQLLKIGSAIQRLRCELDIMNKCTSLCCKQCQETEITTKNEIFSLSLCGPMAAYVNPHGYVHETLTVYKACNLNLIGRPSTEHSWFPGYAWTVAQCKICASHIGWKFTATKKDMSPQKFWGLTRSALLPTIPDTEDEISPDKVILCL
T3 sequence (Q16531 whole entry partner): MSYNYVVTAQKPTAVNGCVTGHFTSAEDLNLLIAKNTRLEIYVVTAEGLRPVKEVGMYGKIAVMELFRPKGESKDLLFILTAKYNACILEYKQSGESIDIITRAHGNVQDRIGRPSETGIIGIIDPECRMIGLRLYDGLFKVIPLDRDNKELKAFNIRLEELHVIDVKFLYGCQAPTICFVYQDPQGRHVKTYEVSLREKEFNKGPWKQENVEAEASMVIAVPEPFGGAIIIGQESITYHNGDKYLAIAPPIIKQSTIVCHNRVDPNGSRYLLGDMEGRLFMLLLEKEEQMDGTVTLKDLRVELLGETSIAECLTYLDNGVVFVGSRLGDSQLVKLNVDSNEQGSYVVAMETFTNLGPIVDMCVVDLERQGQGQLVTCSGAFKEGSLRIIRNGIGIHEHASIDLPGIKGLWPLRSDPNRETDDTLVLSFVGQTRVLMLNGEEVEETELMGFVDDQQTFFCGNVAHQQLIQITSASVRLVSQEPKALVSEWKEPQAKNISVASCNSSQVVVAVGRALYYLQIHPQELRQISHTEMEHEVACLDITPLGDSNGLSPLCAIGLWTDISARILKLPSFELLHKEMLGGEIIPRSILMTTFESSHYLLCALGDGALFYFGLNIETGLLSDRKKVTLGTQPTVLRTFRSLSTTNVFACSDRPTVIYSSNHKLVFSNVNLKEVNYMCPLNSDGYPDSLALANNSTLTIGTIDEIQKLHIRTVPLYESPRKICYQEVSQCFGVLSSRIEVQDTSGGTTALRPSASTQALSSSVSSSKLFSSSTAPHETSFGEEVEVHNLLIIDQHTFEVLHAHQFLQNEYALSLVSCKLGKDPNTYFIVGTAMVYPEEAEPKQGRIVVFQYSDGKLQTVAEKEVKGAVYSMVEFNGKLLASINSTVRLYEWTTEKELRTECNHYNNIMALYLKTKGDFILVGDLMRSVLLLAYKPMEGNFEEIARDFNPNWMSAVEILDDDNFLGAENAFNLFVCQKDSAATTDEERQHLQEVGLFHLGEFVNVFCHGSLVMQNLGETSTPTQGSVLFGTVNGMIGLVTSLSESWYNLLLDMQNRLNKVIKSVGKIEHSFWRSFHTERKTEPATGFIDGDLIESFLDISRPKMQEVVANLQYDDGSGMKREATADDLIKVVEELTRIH
Protocol: (§1) The 24-well cell culture plate was inoculated with 0.95 mL L363 cells (Nanjing Co-bioer) per well with a cell density of 6×10^5 cells/well. The cell plate was placed in a 5% carbon dioxide incubator and cultured at 37° C. for 8 hours, then 50 μL of compound solution was added. The final concentration of the compound was 1000 nM. After continuing to culture for 16 hours, the cells were collected into a 1.5 mL centrifuge tube and centrifuged at 3000 rpm and 4° C. for 5 minutes. Cell precipitation was washed twice with 1×DPBS, resuspended cells were lysed with 100 μL lysate (cell lysate was Western and IP cell lysate (Beyotime), supplemented with 1 mM mixture of phenylmethylsulfonyl fluoride and protease inhibitor (Beyotime)), left on ice for 30 minutes, then centrifuged at 14000 g at 4° C. for 10 minutes, and the supernatant was taken to detect IKZF1 and IKZF3 protein level by Western blot.
(§2) The total protein concentration in the supernatant of cell lysis was determined by BCA protein quantitative kit (Tiangen). According to the concentration of total protein detected by BCA, the supernatant was adjusted to […] with PBS and 5×SDS-PAGE protein loading buffer (Beyotime), bathed in water at 100° C. for 10 minutes, then placed in ice bath for 5 minutes, centrifuged at 14000 g and 4° C. for 5 minutes, and then collected as WB loading sample. Prefabricated glue (KeyGEN) was used for protein electrophoresis with a loading amount of 10 μL (total protein 2 μg). After Tris-MOPS-SDS electrophoresis solution (Adamas), 120V constant pressure electrophoresis was performed. After electrophoresis, the protein on the adhesive strip was transferred to PVDF membrane with a constant current of […] for 50 minutes. After the membrane was transferred, the membrane was incubated in 5% bovine serum albumin solution for 2 hours at room temperature. After blocking, PVDF membranes were incubated with IKZF1 primary antibody (CST) and IKZF3 primary antibody (Abcam) overnight at 4°, the membranes were washed with TBST buffer (2.4 g Tris, 8.8 g NaCl, 1.5 mL Tween 20, pH adjusted to 7.4, constant volume to 1 L) for 30 minutes, incubated with secondary antibody (Abcam) for 2 hours at room temperature, finally incubated with Clarity Western ECL Substrate (BIO-RAD) for 5 minutes for luminescence development, chemiluminescence imaging system (Clinx, chemiScope 6200 Touch) was used for development and protein mapping photography. The protein map was analyzed by Clinx chemiluminescence analysis software for grayscale values. Using the formula: grayscale correction value=(target protein grayscale value/corresponding internal reference grayscale value)×10^3, the grayscale correction value of each sample was calculated. The degradation rate was calculated by comparing with the grayscale correction value of the control group.

IKZF3 = molecular target: T4, IKZF3 (Homo sapiens, UniProt Q96SW2+Q9UKT9); assay: Degradation of IKZF3 in L363 cells by Western blot; type: cell-based; conditions: compound 1000 nM, 16 hours
T4 construct: endogenous in cells; host or cells: L363 cells
T4 sequence (Q9UKT9 whole entry): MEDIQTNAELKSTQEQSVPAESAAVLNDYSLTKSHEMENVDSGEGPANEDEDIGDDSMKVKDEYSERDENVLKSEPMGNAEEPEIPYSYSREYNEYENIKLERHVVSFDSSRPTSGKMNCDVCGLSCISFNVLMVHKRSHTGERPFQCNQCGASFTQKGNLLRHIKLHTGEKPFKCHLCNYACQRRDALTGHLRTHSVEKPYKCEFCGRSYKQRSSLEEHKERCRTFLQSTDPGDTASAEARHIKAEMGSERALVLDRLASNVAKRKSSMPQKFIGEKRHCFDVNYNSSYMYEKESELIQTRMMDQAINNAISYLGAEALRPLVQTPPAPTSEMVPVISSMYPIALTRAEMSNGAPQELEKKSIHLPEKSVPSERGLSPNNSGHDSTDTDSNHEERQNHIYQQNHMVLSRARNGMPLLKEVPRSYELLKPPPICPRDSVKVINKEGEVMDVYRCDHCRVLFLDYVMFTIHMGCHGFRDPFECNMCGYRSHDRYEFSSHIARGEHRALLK
T4 sequence (Q96SW2 whole entry): as the sequence (Q96SW2 whole entry) above
T4 sequence (Q16531 whole entry partner): as the sequence (Q16531 whole entry partner) above
Protocol: as §1, §2

[2] = Pharmacokinetic study in mice; type: in vivo, SD mice
Protocol: The following experimental scheme was used to study the pharmacokinetic behavior of the compound of the present invention in mice and evaluate its pharmacokinetic characteristics.
Experimental scheme: 3 healthy SD mice, male, weighing […], were given 100 mg/kg compound by gavage with a volume of 10 mL/kg, prepared with […] (w/v). Before the test, they were fasted for 12 hours and freely drank water. Food was uniformly consumed 4 h after administration.
Three healthy SD mice, male, weighing […], were given 1 mg/kg compound intravenously with a volume of 5 mL/kg, prepared with 5% DMSO/15% solutol %80% PBS (w/v). Before the test, they were fasted for 12 hours and freely drank water. Food was uniformly consumed 4 h after administration.
0.1 mL of venous blood was taken through the submaxillary venous plexus of mice at 0.08 h, 0.25 h, 0.5 h, 1 h, 2 h, 4 h, 8 h, 24 h after gavage administration and 0.08 h, 0.25 h, 0.5 h, 1 h, 2 h, 4 h, 8 h, 24 h after intravenous administration, placed in a heparin test tube, centrifuged at 11000 rpm for 5 min, and plasma was separated, the concentration of compounds in plasma was determined by liquid chromatography-tandem mass spectrometry.

[3] = male, SD, mouse, po, gavage administration 100 mg/kg, plasma

Row | SMILES | IC50 (IRAK4 kinase) | DC50 [1] | Dmax [1] | WB D(%) (300 nM) [1] | WB D(%) (1000 nM) [1] | IKZF1 degradation rate (%) (IKZF1) | IKZF3 degradation rate (%) (IKZF3) | CL_pred ([2]; intravenous injection 1 mg/kg) | Vss_pred ([2]; intravenous injection 1 mg/kg) | AUC(0-t) ([2]; male, SD, mouse, intravenous injection 1 mg/kg, plasma) | bioavailability ([2]; male, SD, mouse, plasma, po, gavage 100 mg/kg vs intravenous 1 mg/kg) | AUC(0-t) [2, 3] | Cmax [2, 3]
1 | CC(C)(O)c1cc2nn(C3CCN(CCN4CCN(c5ccc6c(c5)C(=O)N(C5CCC(=O)NC5=O)C6=O)CC4)CC3)cc2cc1NC(=O)c1cccc(C(F)(F)F)n1 (centres unmarked) [Example 4, N-(2-(1-(2-(4-(2-(2,6-dioxopiperidin-3-yl)-1,3-dioxoisoindolin-5-yl)piperazin-1-yl)ethyl)piperidin-4-yl)-6-(2-hydroxyprop-2-yl)-2H-indazol-5-yl)-6-(trifluoromethyl) pyridinecarboxamide] | 17.8 nM | 1.7 nM | 99.9% | 99.5% | 99.9% | 4.3 ± 0.8% | −4.5 ± 2.9% | – | – | – | – | – | –
2 | CN(CC1CCN(c2cccc3c2C(=O)N(C2CCC(=O)NC2=O)C3=O)CC1)C[C@H]1CC[C@H](n2cc3cc(NC(=O)c4cccc(C(F)(F)F)n4)c(C(C)(C)O)cc3n2)CC1 (some centres unmarked) [Control group 3, N-(2-((1r,4r)-4-((((1-(2-(2,6-dioxopiperidin-3-yl)-1,3-dioxoisoindolin-4-yl)piperidin-4-yl)methyl)(methyl)amino)methyl)cyclohexyl)-6-(2-hydroxyprop-2-yl)-2H-indazol-5-yl)-6-(trifluoromethyl) pyridinecarboxamide, reference compound] | – | – | – | – | – | 97.2 ± 2.6% | 92.8 ± 5.0% | – | – | – | – | – | –
3 | COc1cc2nn(C3CCN(CC4CCN(CCOc5ccc6c(c5)C(=O)N(C5CCC(=O)NC5=O)C6=O)CC4)CC3)cc2cc1NC(=O)c1cccc(C(F)(F)F)n1 (centres unmarked) [Control group 2, N-(2-(1-((1-(2-((2-(2,6-dioxopiperidin-3-yl)-1,3-dioxoisoindol-5-yl)oxy)ethyl)piperidin-4-yl)methyl)piperidin-4-yl)-6-methoxy-2H-indazol-5-yl)-6-(trifluoromethyl) pyridinecarboxamide, reference compound] | – | – | 85.1% | 79.7% | 85.7% | 47.5 ± 9.7% | 71.2 ± 5.7% | 91.7 mL/min/kg | 109.4 L/kg | 122 ng·h/mL | 14% | 1720 ng·h/mL | 150 ng/mL
4 | CC(C)(O)c1cc2nn(C3CCN(CCC4CCN(c5ccc6c(c5)C(=O)N(C5CCC(=O)NC5=O)C6=O)CC4)CC3)cc2cc1NC(=O)c1cccc(C(F)(F)F)n1 (centres unmarked) [Example 5, N-(2-(1-(2-(1-(2-(2,6-dioxopiperidin-3-yl)-1,3-dioxoisoindolin-5-yl)piperidin-4-yl)ethyl)piperidin-4-yl)-6-(2-hydroxyprop-2-yl)-2H-indazol-5-yl)-6-(trifluoromethyl) pyridinecarboxamide] | 41.1 nM | 12.1 nM | 92.4% | 91.3% | 89.5% | 18.8 ± 2.7% | 22.4 ± 6.6% | – | – | – | – | – | –
5 | Nc1cccc2c1C(=O)N(C1CCC(=O)NC1=O)C2=O (centres unmarked) [Pomalidomide, reference compound] | – | – | – | – | – | 99.7 ± 0.2% | 98.6 ± 0.6% | – | – | – | – | – | –
